These are literature values, as cited in US6768024B1, “Triamine derivative melanocortin receptor ligands and methods of using same” (Lion Bioscience AG, priority 2000, dated 2004).

Data set [1] deals with rodent models. Particulars: normal, Zucker fatty and diet-induced obesity rodent models.
For data set [2], the system named is rats. Particulars: IP, ICV.
The test system of data set [3] is human subjects. Particulars: pilot phase I.

On to `CC(C)CC(N(C)C)C1(c2ccc(Cl)cc2)CCC1` (stereo not drawn) [Sibutramine], for which the body weight result in data set [1] is recorded as “lower body weight”.

In the case of “Ac-Nle-Gln-His-(D)-Phe-Arg-(D)-Trp-Gly-NH2 [HP228]”, in data set [2], the “hypophagia and weight loss” value is “notable hypophagia and weight loss”.

For the compound MELANOTAN-II, the penile erections result in data set [3] is reported as “cause penile erections”.
